Source: PubChem BioAssay (NCI)
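Exposure lasted 48 hours, with cells grown in 96-well plates and compounds tested at five concentrations. TGI: total growth inhibition.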

Assays:
Experiment in all cases: DTP human tumour cell line panel, 48 h
786-0 renal = test system: 786-0 renal
NCI/ADR-RES ovarian = test system: NCI/ADR-RES ovarian
UO-31 renal = test system: UO-31 renal
M14 melanoma = test system: M14 melanoma
HL-60(TB) leukemia = test system: HL-60(TB) leukemia
EKVX NSCLC = test system: EKVX NSCLC
OVCAR-5 ovarian = test system: OVCAR-5 ovarian
SK-MEL-28 melanoma = test system: SK-MEL-28 melanoma
U251 CNS = test system: U251 CNS
SR leukemia = test system: SR leukemia
NCI-H460 lung = test system: NCI-H460 lung
UACC-62 melanoma = test system: UACC-62 melanoma
UACC-257 melanoma = test system: UACC-257 melanoma
NCI-H23 lung = test system: NCI-H23 lung
DU-145 prostate = test system: DU-145 prostate
MALME-3M melanoma = test system: MALME-3M melanoma
TK-10 renal = test system: TK-10 renal
MOLT-4 leukemia = test system: MOLT-4 leukemia
SK-MEL-2 melanoma = test system: SK-MEL-2 melanoma
MDA-MB-231 breast = test system: MDA-MB-231 breast

Compound	TGI (786-0 renal) [µM]	TGI (NCI/ADR-RES ovarian) [µM]	TGI (UO-31 renal) [µM]	TGI (M14 melanoma) [µM]	TGI (HL-60(TB) leukemia) [µM]	TGI (EKVX NSCLC) [µM]	TGI (OVCAR-5 ovarian) [µM]	TGI (SK-MEL-28 melanoma) [µM]	TGI (U251 CNS) [µM]	TGI (SR leukemia) [µM]	TGI (NCI-H460 lung) [µM]	TGI (UACC-62 melanoma) [µM]	TGI (UACC-257 melanoma) [µM]	TGI (NCI-H23 lung) [µM]	TGI (DU-145 prostate) [µM]	TGI (MALME-3M melanoma) [µM]	TGI (TK-10 renal) [µM]	TGI (MOLT-4 leukemia) [µM]	TGI (SK-MEL-2 melanoma) [µM]	TGI (MDA-MB-231 breast) [µM]
COC(=O)c1nc(-c2nc(CCNC(=O)OC(C)(C)C)sc2Cl)sc1Cl	> 100	> 100	> 100	> 100	> 100	> 100	> 100	> 100	> 100	> 100	> 100	> 100	> 100	> 100	> 100	> 100	> 100	> 100	–	–
CC1(C)CC(=O)c2c(nc(SSc3nc4c(c(-c5ccc(Br)cc5)c3C#N)C(=O)CC(C)(C)C4)c(C#N)c2-c2ccc(Br)cc2)C1	> 10	> 10	> 10	> 10	> 10	> 10	> 10	> 10	> 10	> 10	> 10	–	> 10	> 10	> 10	> 10	> 10	> 10	> 10	–
Cc1cc(=O)oc2c3c(ccc12)OC(c1ccc(Br)cc1)CC3=O (configuration not stated)	25.5	> 100	21.9	31.6	–	31.8	31.4	21.3	18.3	> 100	36.8	23.7	27.9	27.5	–	71.3	27.1	4.91	33.5	37.8
Cc1cc(=O)oc2c(C)c3oc(CBr)c(Br)c3cc12	29.7	95.7	36.5	50.3	> 100	> 100	80	> 100	> 100	98.5	49	37.6	> 100	> 100	> 100	–	> 100	> 100	> 100	> 100
Cn1c2ccccc2c2nc3ccccc3c(Cl)c21	> 100	> 100	–	> 100	> 100	–	> 100	> 100	> 100	> 100	> 100	> 100	> 100	> 100	> 100	> 100	> 100	> 100	> 100	> 100
CN(NC(=O)/C(=C\c1ccco1)NC(=O)c1ccccc1)c1cn[nH]c(=O)c1Cl	> 100	> 100	> 100	> 100	–	> 100	> 100	> 100	> 100	> 100	> 100	> 100	> 100	> 100	> 100	> 100	> 100	93.3	> 100	> 100
CC(=O)c1sc(Nc2ccc(Cl)c(Cl)c2)nc1C	> 100	> 100	> 100	–	–	> 100	> 100	> 100	> 100	> 100	> 100	> 100	> 100	> 100	> 100	> 100	> 100	83.8	–	> 100
CCc1cccc(C(C)CC)c1NC(=O)C(=O)C(CC(=O)Nc1ccc(Cl)c(Cl)c1)C(=O)OC (configuration not stated)	> 100	–	> 100	> 100	> 100	> 100	> 100	> 100	> 100	> 100	> 100	18.9	> 100	> 100	–	> 100	> 100	> 100	> 100	–
Nc1cc(N2CCOCC2)nc(=O)n1-c1ccc(Cl)cc1	> 100	> 100	> 100	> 100	> 100	> 100	> 100	> 100	> 100	> 100	> 100	> 100	> 100	> 100	> 100	–	–	> 100	> 100	–
CC(=O)N/N=C1/CC[C@@]2(C)C(=CC[C@H]3C4CCC(C(C)CCCC(C)C)[C@@]4(C)CCC32)C1(C)C (some centres not stated)	> 100	> 100	> 100	> 100	> 100	> 100	> 100	> 100	> 100	> 100	> 100	> 100	> 100	> 100	> 100	> 100	> 100	34.1	> 100	–
O=S(=O)(NC1OCCCC1I)c1ccccc1 (configuration not stated)	> 100	> 100	> 100	–	–	> 100	> 100	> 100	> 100	> 100	> 100	> 100	> 100	> 100	> 100	> 100	> 100	> 100	> 100	> 100
COc1ccc2c(c1)CCC1=C/C(=N\NC(N)=O)CCC12C (configuration not stated)	> 10	> 10	–	> 10	> 10	–	–	> 10	> 10	> 10	–	> 10	> 10	> 10	> 10	> 10	> 10	> 10	–	> 10
COc1cc(C)c(C)c(OC(=O)c2c(C)c(C)c(OC)c(C)c2OC)c1C	53.4	–	> 100	33.9	32.6	98.3	91.4	> 100	21	22	20.4	> 100	78.6	52.9	–	65.7	> 100	45.2	24.8	–
Cn1nc2ccc3nccc(N(CCO)CCO)c3c2n1	> 100	–	> 100	> 100	> 100	> 100	> 100	> 100	> 100	> 100	> 100	> 100	> 100	> 100	–	> 100	> 100	> 100	> 100	–
COc1ccc(NC(=O)CC(=O)N/N=C/c2ccc(N(CCC#N)S(=O)(=O)c3ccccc3)cc2)cc1	> 100	–	> 100	> 100	> 100	> 100	> 100	> 100	> 100	> 100	> 100	> 100	> 100	> 100	–	> 100	> 100	> 100	> 100	–
COc1ccc(CCNC(=O)CCc2ccccc2CO)cc1OC	> 100	> 100	> 100	> 100	> 100	> 100	> 100	> 100	> 100	> 100	> 100	> 100	> 100	> 100	> 100	–	> 100	> 100	> 100	> 100
CCOP(=O)(OCC)[C@]12C[C@@H](C)C=C[C@H]1COC2=O	> 100	–	> 100	> 100	–	> 100	> 100	> 100	> 100	> 100	> 100	> 100	> 100	> 100	> 100	> 100	> 100	> 100	> 100	> 100
CC(=O)OC1CC[C@@]2(C)C(C1)CC(OC(C)=O)[C@@H]1C2CC(OC(C)=O)[C@]2(C)C(C(C)CC=C(c3ccc(Cl)cc3)c3ccc(Cl)cc3)CCC12 (some centres not stated)	> 100	> 100	> 100	> 100	27.9	> 100	> 100	> 100	> 100	> 100	> 100	–	> 100	–	–	–	> 100	> 100	–	> 100
CCCC(=O)Oc1ccc2c(C)cc(=O)oc2c1OC(=O)CCC	> 100	> 100	> 100	> 100	–	> 100	> 100	> 100	> 100	> 100	–	> 100	> 100	> 100	> 100	> 100	> 100	> 100	> 100	> 100
COC(=O)CCc1cccnc1/C=N/O	> 100	–	> 100	> 100	> 100	> 100	> 100	> 100	> 100	> 100	> 100	> 100	> 100	> 100	–	> 100	> 100	> 100	> 100	–
CC(C)(Oc1ccc2c(=O)cc(-c3ccccc3)oc2c1)C(=O)Nc1c(Cl)cccc1Cl	> 100	–	> 100	> 100	> 100	> 100	> 100	> 100	> 100	> 100	> 100	> 100	> 100	> 100	–	> 100	> 100	> 100	> 100	–
CCc1cccc(CC)c1NC(=O)C1=C(C)NC(C)=C(C(=O)Nc2c(CC)cccc2CC)C1c1ccc2c(c1)OCO2	29.9	–	30.8	31.1	26.4	38.3	31.7	35	27.4	65	28.6	25.6	35.1	32.8	–	29.7	> 100	> 100	33.7	–
CCCCCCCCCCCC(=O)c1c(O)cccc1O	32.8	–	30.2	33.3	43.6	33.6	28.5	32	34	49	42.9	34.3	30.8	32.2	–	29.5	92.4	47.8	30	–
Cc1nc(Nc2ccccc2)sc1C(=O)NNc1ccc([N+](=O)[O-])cc1[N+](=O)[O-]	> 100	–	> 100	> 100	41.2	71.2	> 100	> 100	> 100	65.7	> 100	> 100	> 100	44.2	–	> 100	> 100	69.7	> 100	–
CC(C)c1cccc(C(=O)NCCN(C)C)c1[N+](=O)[O-]	> 100	> 100	> 100	> 100	> 100	–	> 100	> 100	> 100	> 100	> 100	> 100	> 100	> 100	> 100	> 100	> 100	> 100	> 100	> 100
CC(=O)C(=[N+]=[N-])C(=O)OCCOC(=O)C(=[N+]=[N-])C(C)=O	> 1	–	> 1	> 1	> 1	> 1	> 1	> 1	> 1	> 1	> 1	> 1	> 1	> 1	> 1	> 1	> 1	> 1	> 1	> 1
